The structures appear in SMILES notation.

Data set [1] addresses Syk (Homo sapiens, UniProt P43405). The data set can be described thus: Kinase assay (LANCE Ultra TR-FRET), Syk. The data set is classed as biochemical. The protocol: (§1) Kinase assays were conducted in 384-well plates using LANCE ultra 66 time-resolved fluorescence resonance energy transfer (TR-FRET) methods, according to the manufacturer’s instructions (Perkin-Elmer). In brief, each kinase was pre-incubated with a serially diluted compound for 30 min, incubated with ULight poly-GT peptide substrate and ATP for up to 1 h. Thirty minutes after adding Eu-labeled anti-phosphopeptides Ab diluted in LANCE Detection Buffer, LANCE signals were measured with an EnVision multilabel reader (Perkin-Elmer).
A general note: TR-FRET usually uses a lanthanide donor and a delayed reading to cut background.

Data set [2] has as its target RET (Homo sapiens, UniProt P07949). Description: Kinase assay (LANCE Ultra TR-FRET), RET. The data set is classed as biochemical. The protocol:
as §1

Data set [3] concerns the target FGFR1 (Homo sapiens, UniProt P11362). Description: Kinase assay (LANCE Ultra TR-FRET), FGFR1. The data set is classed as biochemical. As to the method: as §1
In data set [4] the target is FGFR3 (Homo sapiens, UniProt P22607). Description: Kinase assay (LANCE Ultra TR-FRET), FGFR3. The class given is biochemical. The protocol: as §1
FGFR3, sequence (P22607 23-806, species assumed): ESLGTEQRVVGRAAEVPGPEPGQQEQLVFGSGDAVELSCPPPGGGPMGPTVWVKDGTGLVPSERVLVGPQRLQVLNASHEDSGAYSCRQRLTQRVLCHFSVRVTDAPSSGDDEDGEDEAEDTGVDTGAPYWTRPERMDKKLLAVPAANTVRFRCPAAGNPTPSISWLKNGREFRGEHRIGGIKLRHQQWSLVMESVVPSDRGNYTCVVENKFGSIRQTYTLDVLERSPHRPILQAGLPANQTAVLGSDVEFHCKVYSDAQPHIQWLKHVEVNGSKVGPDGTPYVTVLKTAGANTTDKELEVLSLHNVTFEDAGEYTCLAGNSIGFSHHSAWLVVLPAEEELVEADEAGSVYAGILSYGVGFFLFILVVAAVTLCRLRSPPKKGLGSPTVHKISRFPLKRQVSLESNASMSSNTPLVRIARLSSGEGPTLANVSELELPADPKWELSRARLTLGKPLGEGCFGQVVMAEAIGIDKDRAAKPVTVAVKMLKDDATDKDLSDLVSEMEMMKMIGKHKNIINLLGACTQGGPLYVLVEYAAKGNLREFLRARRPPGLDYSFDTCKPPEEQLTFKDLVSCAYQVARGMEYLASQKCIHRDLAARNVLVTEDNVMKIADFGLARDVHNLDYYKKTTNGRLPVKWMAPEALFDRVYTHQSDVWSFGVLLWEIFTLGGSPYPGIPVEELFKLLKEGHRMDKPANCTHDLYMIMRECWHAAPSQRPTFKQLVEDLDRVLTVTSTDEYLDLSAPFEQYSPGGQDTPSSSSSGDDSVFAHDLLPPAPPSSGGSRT
The target in data set [5] is Pyk2 (Homo sapiens, UniProt Q14289). Description: Kinase assay (LANCE Ultra TR-FRET), Pyk2. The data set is classed as biochemical. As to the method:
as §1

Data set [6] addresses T1, phosphorylated Syk (p-Syk) in Ramos cells (Homo sapiens, UniProt P43405).
T1 construct: endogenous in cells; host or cells: Ramos (ATCC), THP-1 (ATCC), human CD14+ monocytes (Lonza)
Description: p-Syk ELISA in anti-IgM-stimulated Ramos cells (BCR signal). The class given is cell-based. As to the method: (§2) THP-1 and Ramos cell lines and human CD14^+ monocytes were purchased from the American Type Culture Collection (ATCC) and Lonza, respectively. After treatment with Syk inhibitors for 1 h, THP-1 cells and monocytes were stimulated for 15 min with 100 μg/ml human IgG (Invitrogen), and Ramos cells were stimulated with 2 μg/ml anti-human IgM monoclonal Ab (mAb) (Bathyl). Cells were lysed in RIPA buffer containing 1% NP-40, 1% sodium deoxycholate, 0.1% SDS, and a mixture of protease and phosphatase inhibitors (Thermo Scientific). The lysates were assayed by standard immunoblotting methods and ELISA. Primary Abs used for immunoblotting were anti-phospho-Syk ([…]), anti-phospho-Vav (Y174), anti-phospho-PLCγ1 (Y1217) and anti-phospho-BLNK (Y96) Abs (all from Cell Signaling). ELISAs to detect phospho-Syk (Y525/526) were performed according to the manufacturer’s protocol (Cell Signaling).
(§3) Ramos cells (A), human primary monocytes (B), and THP cells (C) were pretreated with inhibitors at the indicated concentrations and stimulated with anti-human IgM (A) and human IgG (B and C). […] The relative intensities of protein phosphorylation levels were quantitated with reference to each lane of β-actin control bands. (D) Ramos cells, human primary monocytes, and THP cells were treated as in A–C for 24 h and levels of phosphorylated Syk (p-Syk) were measured by ELISA.
Background: ELISA stands for enzyme-linked immunosorbent assay.

Data set [7] deals with T2, phosphorylated Syk (p-Syk) in human CD14+ monocytes (Homo sapiens, UniProt P43405).
T2 construct: endogenous in cells; host or cells: Ramos (ATCC), THP-1 (ATCC), human CD14+ monocytes (Lonza)
Description: p-Syk ELISA in IgG-stimulated human CD14+ monocytes (FcγR signal). The class given is cell-based. As to the method:
as §2, §3

Data set [8] concerns human primary B cells. The data set can be described thus: IgM, IgG and IL-6 secretion by stimulated human primary B cells (ELISA). The class given is cell-based. Particulars: TLR9 agonist plus IL-2 or IFN-α; efficacy comparable to R406. As to the method: Human CD19^+ B cells (Lonza) were pre-treated with inhibitors for 1 h and stimulated for 24 h with 50 nM CpG ODN 2006 plus 10 ng/ml IL-2 or 1 μM CpG ODN 2006 plus 20 ng/ml IFN-α. Culture supernatants were assayed by ELISA to detect secreted IgG, IgM, and IL-6, according to the manufacturer’s instructions.
(§4) Figure 2: in vitro effects of SKI-O -703 on the proliferation, survival, and differentiation of B cells. Mouse primary B cells were labeled with CP670, and stimulated with either anti-IgM mAb, CD40L and IL-4 (A) or LPS (B) for 72 h in the presence or absence of SKI-O-703 and tofacitinib at the indicated concentrations; they were then assayed by FACS. (C and D) Mouse primary B cells were cultured as in A and B for 24 h, stained with Annexin V and 7-AAD, and assayed by FACS. Representative FACS profiles and graphs displaying mean Annexin V-positivity are shown. (E) Human primary B cells were stimulated with CpG ODN plus IL-2 (to detect IgM and IgG) or CpG ODN 2006 plus IFN-α (to detect IL-6) in the presence or absence of inhibitors. The culture supernatants were assayed by ELISA. Graphs are expressed as % positivity relative to the controls (without inhibitor). The data are representative of 2–3 independent experiments. *P < 0.05, **P < 0.01, and ***P < 0.001, compared with vehicle control by two-tailed unpaired Students t-tests.

Data set [9] concerns mouse primary B cells. The data set can be described thus: CP670-dilution proliferation assay, BCR crosslinking (anti-IgM) stimulated B cells. The data set is classed as cell-based. Particulars: 0.1–5 μM, CP670 dilution, 72 h. As to the method: Splenic CD19^+ B cells from C57BL/6 mice were sorted by MACS (Milteny Biotec), stained with 3 μM cell proliferation dye eFluor 670 (CP670; eBioscience), and cultured for 72 h in the presence of either 10 μg/ml LPS (Sigma Aldrich) or 5 μg/ml anti-mouse IgM (Jackson Immuno Research Laboratories), 10 μg/ml anti-CD40 mAb (Biolegend) and 10 ng/ml IL-4 (Peprotech), and assayed by FACS. To detect apoptotic cells, unstimulated cells were cultured for 24 h, stained with Annexin V and 7-aminoactinomycin D (7-AAD), and assayed by FACS.
as §4, with “The data are representative of 2–3 independent experiments. *P < 0.05, **P < 0.01, and ***P < 0.001, compared with vehicle control by two-tailed unpaired Students t-tests.” left out

A short description of data set [10]: Aqueous solubility. The data set is classed as physicochemical. Particulars: aqueous solution.

RET, sequence (P07949 29-1114, species assumed): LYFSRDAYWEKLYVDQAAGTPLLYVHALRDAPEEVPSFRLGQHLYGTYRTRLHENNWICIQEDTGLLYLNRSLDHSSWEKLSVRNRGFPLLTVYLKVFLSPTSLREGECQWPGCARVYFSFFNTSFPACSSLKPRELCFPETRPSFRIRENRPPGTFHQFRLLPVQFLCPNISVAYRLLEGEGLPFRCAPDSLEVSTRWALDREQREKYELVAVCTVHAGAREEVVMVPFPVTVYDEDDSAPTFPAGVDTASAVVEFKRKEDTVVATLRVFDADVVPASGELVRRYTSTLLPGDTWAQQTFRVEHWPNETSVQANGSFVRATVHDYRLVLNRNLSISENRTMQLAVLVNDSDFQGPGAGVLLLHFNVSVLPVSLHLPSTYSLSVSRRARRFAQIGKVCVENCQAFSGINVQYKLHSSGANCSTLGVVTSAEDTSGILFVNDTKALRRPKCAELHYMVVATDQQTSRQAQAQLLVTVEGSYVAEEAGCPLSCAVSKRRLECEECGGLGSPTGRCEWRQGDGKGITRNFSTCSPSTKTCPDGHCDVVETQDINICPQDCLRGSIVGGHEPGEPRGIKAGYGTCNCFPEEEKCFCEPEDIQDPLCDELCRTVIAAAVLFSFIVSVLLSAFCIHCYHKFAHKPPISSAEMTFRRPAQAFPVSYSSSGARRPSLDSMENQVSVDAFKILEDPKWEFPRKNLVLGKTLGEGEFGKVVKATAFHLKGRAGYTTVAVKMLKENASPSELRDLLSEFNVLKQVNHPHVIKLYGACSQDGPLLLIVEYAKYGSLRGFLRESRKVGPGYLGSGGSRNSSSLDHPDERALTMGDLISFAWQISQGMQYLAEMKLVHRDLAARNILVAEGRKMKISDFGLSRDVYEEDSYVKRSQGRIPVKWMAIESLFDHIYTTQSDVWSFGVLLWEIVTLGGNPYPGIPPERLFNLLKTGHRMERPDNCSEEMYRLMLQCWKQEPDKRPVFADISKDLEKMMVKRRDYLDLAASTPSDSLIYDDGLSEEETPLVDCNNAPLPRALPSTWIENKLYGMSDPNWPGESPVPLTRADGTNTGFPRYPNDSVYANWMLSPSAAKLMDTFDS
FGFR1, sequence (P11362 22-822, species assumed): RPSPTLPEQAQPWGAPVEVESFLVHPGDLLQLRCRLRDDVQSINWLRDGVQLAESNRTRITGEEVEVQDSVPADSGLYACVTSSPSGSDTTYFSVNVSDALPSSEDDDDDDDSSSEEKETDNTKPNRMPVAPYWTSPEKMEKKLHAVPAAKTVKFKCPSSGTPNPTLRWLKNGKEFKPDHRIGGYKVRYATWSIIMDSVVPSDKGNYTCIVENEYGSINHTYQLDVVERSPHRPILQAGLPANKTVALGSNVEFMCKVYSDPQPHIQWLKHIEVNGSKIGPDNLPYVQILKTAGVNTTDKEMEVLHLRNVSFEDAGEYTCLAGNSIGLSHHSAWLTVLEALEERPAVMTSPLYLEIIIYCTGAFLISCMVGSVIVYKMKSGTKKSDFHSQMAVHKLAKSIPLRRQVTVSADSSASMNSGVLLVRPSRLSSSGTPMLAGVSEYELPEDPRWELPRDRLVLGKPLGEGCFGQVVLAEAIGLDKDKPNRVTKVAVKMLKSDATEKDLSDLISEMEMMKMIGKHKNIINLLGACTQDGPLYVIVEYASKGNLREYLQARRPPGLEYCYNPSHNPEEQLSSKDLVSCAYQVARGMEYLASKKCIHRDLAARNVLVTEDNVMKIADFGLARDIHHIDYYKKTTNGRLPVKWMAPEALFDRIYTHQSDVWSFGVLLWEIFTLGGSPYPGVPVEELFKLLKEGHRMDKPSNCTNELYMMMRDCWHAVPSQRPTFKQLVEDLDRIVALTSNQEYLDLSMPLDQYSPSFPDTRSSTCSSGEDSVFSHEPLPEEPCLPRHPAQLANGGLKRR
Pyk2, sequence (Q14289 whole entry, species assumed): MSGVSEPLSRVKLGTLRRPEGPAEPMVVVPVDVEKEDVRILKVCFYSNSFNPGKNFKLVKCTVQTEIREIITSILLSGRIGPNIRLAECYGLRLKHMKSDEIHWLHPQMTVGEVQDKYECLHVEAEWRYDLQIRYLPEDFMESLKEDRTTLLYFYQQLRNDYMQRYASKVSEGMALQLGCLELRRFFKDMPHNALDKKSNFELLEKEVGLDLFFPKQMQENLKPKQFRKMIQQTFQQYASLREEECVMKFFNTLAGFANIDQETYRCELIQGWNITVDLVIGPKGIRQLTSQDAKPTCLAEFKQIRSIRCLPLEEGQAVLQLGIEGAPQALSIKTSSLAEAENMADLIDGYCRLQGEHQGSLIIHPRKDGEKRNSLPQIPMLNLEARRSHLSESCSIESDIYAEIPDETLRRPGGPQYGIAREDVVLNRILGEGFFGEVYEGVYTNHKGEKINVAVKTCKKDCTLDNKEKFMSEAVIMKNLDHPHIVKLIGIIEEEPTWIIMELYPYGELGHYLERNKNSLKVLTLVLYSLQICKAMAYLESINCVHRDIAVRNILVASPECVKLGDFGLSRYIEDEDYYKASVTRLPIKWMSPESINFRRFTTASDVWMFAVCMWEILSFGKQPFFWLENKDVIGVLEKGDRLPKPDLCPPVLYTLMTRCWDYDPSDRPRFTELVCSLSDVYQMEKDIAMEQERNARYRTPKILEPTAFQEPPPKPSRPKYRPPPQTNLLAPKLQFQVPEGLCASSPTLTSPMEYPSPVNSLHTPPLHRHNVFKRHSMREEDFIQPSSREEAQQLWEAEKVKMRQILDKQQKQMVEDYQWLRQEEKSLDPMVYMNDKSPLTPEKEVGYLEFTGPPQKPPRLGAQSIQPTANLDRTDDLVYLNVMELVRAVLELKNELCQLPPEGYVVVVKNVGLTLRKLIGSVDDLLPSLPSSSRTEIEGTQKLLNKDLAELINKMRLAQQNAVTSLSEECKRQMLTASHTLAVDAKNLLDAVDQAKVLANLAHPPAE

Take `Cc1nn(-c2ccnc(Nc3ccc4c(c3)c(C(=O)C3CC3)cn4C)n2)cc1CN1C[C@H](O)CO1` [SKI-O-592]: the “Ratio to Syk (Syk)” value in data set [1] (IC50 ratio to Syk) was 1.0. In [1] (fold higher than against Syk), the “IC50 against all other kinases tested relative to Syk” value is listed as 67- to 2753 fold. Also, the IC50 (usually the midpoint of a concentration-inhibition curve) was 6.2 nM in data set [1] (kinase activity, TR-FRET); 412 nM in data set [2] (kinase activity, TR-FRET); 17000 nM in data set [3] (kinase activity, TR-FRET); 5660 nM in data set [4] (kinase activity, TR-FRET); 709 nM in data set [5] (kinase activity, TR-FRET); 282 nM in data set [6]. Also, the IC50 in [7] came to 191 nM. In data set [1] (more potent than R406), the “Potency as Syk kinase inhibitor relative to R406” value is “approximately 9 fold”. The “Ratio to Syk (RET)” value in data set [2] (IC50 ratio to Syk) is on record as 67. In addition, in [3] (IC50 ratio to Syk), the “Ratio to Syk (FGFR1)” value came out at 2753. Further, the “Ratio to Syk (FGFR3)” value in data set [4] (IC50 ratio to Syk) is given as 919. Further, the “Ratio to Syk (Pyk2)” value in data set [5] (IC50 ratio to Syk) is given as 115. Besides, in data set [8], the “Production of IgM, IgG and IL-6” value was “inhibited the production of IgM, IgG, and IL-6”.
Regarding `CS(=O)(=O)O.CS(=O)(=O)O.Cc1nn(-c2ccnc(Nc3ccc4c(c3)c(C(=O)C3CC3)cn4C)n2)cc1CN1C[C@H](O)CO1` [SKI-O-703, (S)-cyclopropyl(5-((4-(4-((4-hydroxyisoxazolidin-2-yl)methyl)-3-methyl-1H-pyrazol-1-yl)pyrimidin-2-yl)amino)-1-methyl-1H-indol-3-yl)methanone dimesylate], the BCR crosslinking-induced proliferation entry in [9] is listed as “inhibited BCR crosslinking-induced proliferation in a concentration-dependent manner”. In addition, the Solubility result in data set [10] is “soluble in aqueous solution”.

The record behind these values is paper PMC9993459, “A novel selective spleen tyrosine kinase inhibitor SKI-O-703 (cevidoplenib) ameliorates lupus nephritis and serum-induced arthritis in murine models” (Clinical and Experimental Immunology, 2022).
